From US7199285B2, “Modulation of abscisic acid signal transduction in plants” (University of California, San Diego, priority 2000, dated 2007) come the findings set out here.

The test system of one assay is abh1 mutant. The experiment in a line: seed germination, hypocotyl and root growth assays in the presence of hormones. The assay is classed as in vivo, Arabidopsis thaliana. The note with it: abh1, hormone concentrations from 10 nM to 100 μM. As for the experimental part: Other hormone signaling mutants were analyzed in control experiments: axr1–3 (auxin insensitive) (C. Lincoln et al., Plant Cell, 2:1071(1990)), ein2-1 (ethylene insensitive) (J. M. Alonso et al., Science, 284:2148 (1999)), gai-1 (GA insensitive) (M. Koornneef et al., Physiol Plant., 65:33 (1985)), era1-2 (ABA hypersensitive) (S. Cutler et al., Science, 273:1239 (1996))), and jar1-1 (JA insensitive) (P. E. Staswick et al., Proc. Natl. Acad. Sci. U.S.A., 89:6837 (1992)).

Assay [1] deals with guard cells. The experiment in a line: stomatal closure in response to ABA. The format is cell-based, Arabidopsis thaliana. The note with it: abh1, stomata opened 12 hours at 95% humidity. Here is the method: ABH1 is expressed in guard cells. To determine whether ABH1 modulates early ABA signal transduction elements, stomatal closure in response to ABA was investigated. Stomata were opened by exposing plants for 12 hours to high humidity (95%). Under these conditions stomatal apertures were similar in wild-type and abh1 (2.03±0.19 μm, wild-type, n=60; 1.92±0.21 μm, abh1, n=60; P>0.38). Stomatal closure in abh1 was ABA hypersensitive compared to wild-type (P<0.001). When stomatal apertures were measured in leaves harvested directly from plants grown under lower humidity (40%), without exogenous ABA addition, stomatal apertures of abh1 were smaller than those of wild-type plants (P<0.001), possibly resulting from a hypersensitive response to endogenous ABA.

The subject of assay [2] is Arabidopsis thaliana seeds. The experiment in a line: seed germination on minimum medium with ABA. The assay is classed as in vivo. The note with it: 0.3 μM ABA. Here is the method: This was carried out using Arabidopsis lines (Columbia background, T3 seeds), which were transformed with a T-DNA (SK1015) (D. Weigel et al., Plant Physiol., 122:1003 (2000)), and plated on minimum medium (0.25×MS) with 0.3 μM ABA. After 4 days at 4° C., seeds were transferred to 28° C., continuous light. After 5 more days, germination was analyzed. Non-germinated seeds were transferred to soil and further analyzed.

In assay [3] the test system is guard cells. The assay is described as follows: time-resolved cameleon [Ca2+]cyt imaging of ABA-induced [Ca2+]cyt elevations. The assay is classed as cell-based, Arabidopsis thaliana. Here is the method: Due to the basal regulation of anion and K^+ channels in abh1 without addition of exogenous ABA, experiments were pursued to analyze whether mechanisms lying further upstream confer ABA hypersensitivity in abh1. […] Therefore we directly investigated whether abh1 modulates ABA-induced [Ca^2+]cyt elevations in time-resolved cameleon [Ca^2+]cyt imaging experiments (G. J. Allen et al, The Plant J., 19:735 (1999)). Stomata were opened by exposing plants for 12 hours to 95% humidity.

Take `CC1=CC(=O)CC(C)(C)[C@@]1(O)/C=C/C(C)=C\C(=O)O` [ABA, abscisic acid]: the “phenotypic response (sensitivity) of abh1 mutant to hormone” value in the assay with abh1 mutant is “showed phenotypic responses only to ABA”. Further, the “stomatal closure sensitivity compared to wild-type” value with guard cells [1] is “hypersensitive”. Moreover, the germination entry in assay [2] (abh1 mutant seeds) is listed as “inhibited”. For the same compound, the germination entry in assay [2] (wild-type seeds) is “allowed germination”. Besides, in the assay with guard cells [3] (abh1, 0.5 μM ABA), the “cells responding with one [Ca2+]cyt elevation” value is recorded as 19%, the “cells showing multiple repetitive [Ca2+]cyt increases” value was found to be 45%, the “cells showing no response” value is 36% and the “guard cells showing [Ca2+]cyt increases” value is reported as 64%. For the same compound, in the assay with guard cells [3] (wild-type, 0.5 μM ABA), the “average peak increase of [Ca2+]cyt” value was 170 ± 25 nM, the “guard cells showing [Ca2+]cyt increase (typically only one)” value was 44% and the “guard cells showing no [Ca2+]cyt increase” value was 56%.
On to `C=C1C[C@]23C[C@@]1(O)CC[C@H]2[C@@]12C=C[C@H](O)[C@@](C)(C(=O)O1)[C@H]2[C@@H]3C(=O)O` [GA, gibberellic acid], for which, in the assay with abh1 mutant, the “phenotypic response (sensitivity) of abh1 mutant to hormone” value is given as “slightly reduced sensitivity”.
